# Source: US20130158075A1, “HETEROCYCLIC COMPOUNDS AS DGAT1 INHIBITORS” (PIRAMAL ENTERPRISES LIMITED, priority 2010, published 2013)
# Structures can show the parent of a compound that is named as a salt.
# Biological target: T1, hDGAT1 (Homo sapiens, UniProt O75907)
# T1 construct: made in house; host or cells: Sf9 insect cells (baculovirus); microsomal fraction
# T1 sequence (O75907 1-488): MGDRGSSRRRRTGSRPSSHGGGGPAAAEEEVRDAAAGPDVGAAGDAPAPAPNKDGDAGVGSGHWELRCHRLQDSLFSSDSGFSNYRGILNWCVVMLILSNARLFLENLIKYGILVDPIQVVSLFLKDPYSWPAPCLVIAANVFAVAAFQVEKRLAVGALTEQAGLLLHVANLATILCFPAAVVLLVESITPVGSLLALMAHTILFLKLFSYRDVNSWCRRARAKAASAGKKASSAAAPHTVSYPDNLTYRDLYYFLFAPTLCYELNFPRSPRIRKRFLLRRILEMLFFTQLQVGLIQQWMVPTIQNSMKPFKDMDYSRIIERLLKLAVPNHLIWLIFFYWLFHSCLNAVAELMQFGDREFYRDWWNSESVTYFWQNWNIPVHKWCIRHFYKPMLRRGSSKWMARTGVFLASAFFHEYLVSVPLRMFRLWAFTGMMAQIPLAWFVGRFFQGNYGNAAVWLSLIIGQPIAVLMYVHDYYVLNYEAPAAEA
# Test: In-vitro DGAT1 assay with hDGAT1 microsomes from Sf9 cells (14C oleoyl CoA, scintillation counting)
# Format: biochemical
# Settings: at 1 μM
# Method in brief: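 Radiolabelled triglyceride formation was measured: heptane extracts were scintillation-counted after a 10-min, 37 °C reaction stopped with alkaline ethanol. Enzyme was human DGAT1 in baculovirus-infected Sf9 microsomal membranes; substrates were 14C oleoyl-CoA plus dioleoylglycerol. Runs were duplicated, and inhibition (%) was related to nM compound concentration.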
row,Compound,Percentage inhibition of hDGAT1
1,O=C(Nc1ccc(-c2cnc(CCNS(=O)(=O)C(F)(F)F)s2)cc1)Nc1ccc(C(F)(F)F)cc1 [Example 526],++ (>50 % Inhibition)
2,"O=C(Nc1ccc(-c2cnc(CCNS(=O)(=O)C(F)(F)F)s2)cc1)NC1CCCCC1 [Example 528, N-(2-(5-(4-(3-Cyclohexylureido)phenyl)thiazol-2-yl)ethyl)-1,1,1-trifluoro methanesulfonamide]",++ (>50 % Inhibition)
3,"O=C(Nc1ccc(-c2cnc(CNS(=O)(=O)C(F)(F)F)s2)cc1)Nc1ccccc1Cl [Example 543, N-((5-(4-(3-(2-Chlorophenyl)ureido)phenyl)thiazol-2-yl)methyl)-1,1,1-trifluoro methanesulfonamide]",++ (>50 % Inhibition)
4,"O=C(Nc1ccc(-c2cnc(CNS(=O)(=O)C(F)(F)F)s2)cc1)NC1CCCCC1 [Example 548, N-((5-(4-(3-Cyclohexylureido)phenyl)thiazol-2-yl)methyl)-1,1,1-trifluoro methanesulfonamide]",++ (>50 % Inhibition)
5,O=C(Nc1ccc(-c2cnc(CNS(=O)(=O)C(F)(F)F)s2)cc1)c1ccccc1Cl [Example 551],+ (20-50% Inhibition)

# Same assay, conditions: read-out: Percentage inhibition of hDGAT1
row,Compound,inhibition at 1 µM [%]
1,"O=C(Nc1ccc(-c2cnc(C34CC5CC(CC(C(=O)O)(C5)C3)C4)s2)cc1)Nc1cc(F)cc(F)c1 [Example 512, 3-(5-(4-(3-(3,5-Difluorophenyl)ureido)phenyl)thiazol-2-yl)adamantane-1-carboxylic acid]",> 50
2,"O=C(Nc1ccc(-c2cnc(C34CC5CC(CC(C(=O)O)(C5)C3)C4)s2)cc1)Nc1cccc(C(F)(F)F)c1 [Example 514, 3-(5-(4-(3-(3-(Trifluoromethyl)phenyl)ureido)phenyl)thiazol-2-yl)adamantane-1-carboxylic acid]",> 50
3,"O=C(Nc1ccccc1)Nc1ccc(-c2cnc(CCNS(=O)(=O)C(F)(F)F)s2)cc1 [Example 527, 1,1,1-Trifluoro-N-(2-(5-(4-(3-phenylureido)phenyl)thiazol-2-yl)ethyl)methane sulfonamide]",> 50
4,"O=C(Nc1ccc(-c2cnc(CCNS(=O)(=O)C(F)(F)F)s2)cc1)c1ccccc1Cl [Example 529, 2-Chloro-N-(4-(2-(2-(trifluoromethylsulfonamido)ethyl)thiazol-5-yl)phenyl)benzamide]",20 to 50
5,"O=C(Nc1ccc(-c2cnc(CCNS(=O)(=O)C(F)(F)F)s2)cc1)c1nc(-c2ccccc2)oc1C(F)(F)F [Example 533, 2-Phenyl-5-(trifluoromethyl)-N-(4-(2-(2-(trifluoromethylsulfonamido)ethyl)thiazol-5-yl)phenyl)oxazole-4-carboxamide]",> 50
6,"N#CN=C(Nc1ccc(-c2cnc(CCNS(=O)(=O)C(F)(F)F)s2)cc1)Nc1ccccc1F [Example 537, N-(2-(5-(4-(2-Cyano-3-(2-fluorophenyl)guanidino)phenyl)thiazol-2-yl)ethyl)-1,1,1-trifluoromethanesulfonamide]",> 50
7,"O=C(Nc1ccc(-c2cnc(CNS(=O)(=O)C(F)(F)F)s2)cc1)Nc1ccccc1F [Example 544, 1,1,1-Trifluoro-N-((5-(4-(3-(2-fluorophenyl)ureido)phenyl)thiazol-2-yl)methyl)methanesulfonamide]",> 50
8,"O=C(Nc1ccc(-c2cnc(CNS(=O)(=O)C(F)(F)F)s2)cc1)Nc1cc(F)cc(F)c1 [Example 545, N-((5-(4-(3-(3,5-Difluorophenyl)ureido)phenyl)thiazol-2-yl)methyl)-1,1,1-trifluoromethanesulfonamide]",> 50
9,"O=C(Nc1ccc(-c2cnc(CNS(=O)(=O)C(F)(F)F)s2)cc1)Nc1cc(F)c(F)cc1F [Example 546, 1,1,1-Trifluoro-N-((5-(4-(3-(2,4,5-trifluorophenyl)ureido)phenyl)thiazol-2-yl)methyl)methanesulfonamide]",> 50
10,"O=C(Nc1ccc(-c2cnc(CNS(=O)(=O)C(F)(F)F)s2)cc1)Nc1c(F)cc(F)cc1F [Example 547, 1,1,1-Trifluoro-N-((5-(4-(3-(2,4,6-trifluorophenyl)ureido)phenyl)thiazol-2-yl)methyl)methanesulfonamide]",> 50
11,"O=C(Nc1ccc(-c2cnc(CNS(=O)(=O)C(F)(F)F)s2)cc1)Nc1ccc(C(F)(F)F)cc1 [Example 549, 1,1,1-Trifluoro-N-((5-(4-(3-(4-(trifluoromethyl)phenyl)ureido)phenyl)thiazol-2-yl)methyl)methanesulfonamide]",> 50
12,"O=C(Nc1ccccc1)Nc1ccc(-c2cnc(CNS(=O)(=O)C(F)(F)F)s2)cc1 [Example 550, 1,1,1-Trifluoro-N-((5-(4-(3-phenylureido)phenyl)thiazol-2-yl)methyl)methane sulfonamide]",> 50
13,"O=C(Nc1ccc(-c2cnc(CNS(=O)(=O)C(F)(F)F)s2)cc1)c1ccc(C(F)(F)F)cc1 [Example 552, 4-(Trifluoromethyl)-N-(4-(2-((trifluoromethylsulfonamido)methyl)thiazol-5-yl)phenyl)benzamide]",> 50
14,"O=S(=O)(Nc1ccc(-c2cnc(CNS(=O)(=O)C(F)(F)F)s2)cc1)c1ccccc1 [Example 553, N-(4-(2-((Trifluoromethylsulfonamido)methyl)thiazol-5-yl)phenyl)benzene sulfonamide]",20 to 50
15,"CC(C)(NS(=O)(=O)C(F)(F)F)c1ncc(-c2ccc(NC(=O)Nc3ccccc3Cl)cc2)s1 [Example 562, N-(2-(5-(4-(3-(2-Chlorophenyl)ureido)phenyl)thiazol-2-yl)propan-2-yl)-1,1,1-trifluoromethanesulfonamide]",> 50
16,"CC(C)(NS(=O)(=O)C(F)(F)F)c1ncc(-c2ccc(NC(=O)Nc3ccccc3F)cc2)s1 [Example 563, 1,1,1-Trifluoro-N-(2-(5-(4-(3-(2-fluorophenyl)ureido)phenyl)thiazol-2-yl)propan-2-yl)methanesulfonamide]",> 50
17,"CC(C)(NS(=O)(=O)C(F)(F)F)c1ncc(-c2ccc(NC(=O)Nc3cc(F)cc(F)c3)cc2)s1 [Example 564, N-(2-(5-(4-(3-(3,5-Difluorophenyl)ureido)phenyl)thiazol-2-yl)propan-2-yl)-1,1,1-trifluoromethanesulfonamide]",> 50
18,"CC(C)(NS(=O)(=O)C(F)(F)F)c1ncc(-c2ccc(NC(=O)Nc3cc(F)c(F)cc3F)cc2)s1 [Example 565, 1,1,1-Trifluoro-N-(2-(5-(4-(3-(2,4,5-trifluorophenyl)ureido)phenyl)thiazol-2-yl)propan-2-yl)methanesulfonamide]",> 50
19,"CC(C)(NS(=O)(=O)C(F)(F)F)c1ncc(-c2ccc(NC(=O)Nc3c(F)cc(F)cc3F)cc2)s1 [Example 566, 1,1,1-Trifluoro-N-(2-(5-(4-(3-(2,4,6-trifluorophenyl)ureido)phenyl)thiazol-2-yl)propan-2-yl)methanesulfonamide]",20 to 50
20,"CC(C)(NS(=O)(=O)C(F)(F)F)c1ncc(-c2ccc(NC(=O)NC3CCCCC3)cc2)s1 [Example 567, N-(2-(5-(4-(3-Cyclohexylureido)phenyl)thiazol-2-yl)propan-2-yl)-1,1,1-trifluoromethanesulfonamide]",> 50
21,"CC(C)(NS(=O)(=O)C(F)(F)F)c1ncc(-c2ccc(NS(=O)(=O)c3ccccc3)cc2)s1 [Example 568, N-(4-(2-(2-(Trifluoromethylsulfonamido)propan-2-yl)thiazol-5-yl)phenyl)benzenesulfonamide]",20 to 50
22,"NCCc1ncc(-c2ccc(NC(=O)Nc3cc(F)cc(F)c3)cc2)s1 [Example 574, 1-(4-(2-(2-Aminoethyl)thiazol-5-yl)phenyl)-3-(3,5-difluorophenyl)urea hydrochloride]",20 to 50
23,"NCCc1ncc(-c2ccc(NC(=O)Nc3cc(F)c(F)cc3F)cc2)s1 [Example 575, 1-(4-(2-(2-Aminoethyl)thiazol-5-yl)phenyl)-3-(2,4,5-trifluorophenyl)urea hydrochloride]",20 to 50
24,"CC(C)(CCc1ncc(-c2ccc(NC(=O)Nc3ccccc3Cl)cc2)s1)C(=O)NS(=O)(=O)C(F)(F)F [Example 579, 4-(5-(4-(3-(2-Chlorophenyl)ureido)phenyl)thiazol-2-yl)-2,2-dimethyl-N-((trifluoromethyl)sulfonyl)butanamide]",> 50
25,"CC(C)(CCc1ncc(-c2ccc(NC(=O)Nc3ccccc3F)cc2)s1)C(=O)NS(=O)(=O)C(F)(F)F [Example 580, 4-(5-(4-(3-(2-Fluorophenyl)ureido)phenyl)thiazol-2-yl)-2,2-dimethyl-N-((trifluoromethyl)sulfonyl)butanamide]",> 50
26,"CC(C)(CCc1ncc(-c2ccc(NC(=O)Nc3cc(F)cc(F)c3)cc2)s1)C(=O)NS(=O)(=O)C(F)(F)F [Example 581, 4-(5-(4-(3-(3,5-Difluorophenyl)ureido)phenyl)thiazol-2-yl)-2,2-dimethyl-N-((trifluoromethyl)sulfonyl)butanamide]",> 50
27,"CC(C)(CCc1ncc(-c2ccc(NC(=O)Nc3cc(F)c(F)cc3F)cc2)s1)C(=O)NS(=O)(=O)C(F)(F)F [Example 582, 2,2-Dimethyl-N-((trifluoromethyl)sulfonyl)-4-(5-(4-(3-(2,4,5-trifluorophenyl)ureido)phenyl)thiazol-2-yl)butanamide]",> 50
